This is an account of results in ChEMBL document CHEMBL1201862, “PubChem BioAssay data set” (2004).

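Growth conditions: 96-well plates. Treatment: test compound, 48 hours, 5 concentrations. Analysis: linear interpolation between bracketing concentrations; unreached endpoints set to highest concentration. Here, GI50 denotes the concentration required for 50% inhibition of growth.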 Calls of active or inactive are those of the source. No stated cut-off is given here; in the data, active = GI50 up to about 1.1 µM and inactive = higher. Bounds are passed on as bounds.

Test systems include CCRF-CEM; HCC 2998; HOP-92; Hs-578T; MOLT-4; NCI-H226; NCI-H23; NCI-H522; OVCAR-4; OVCAR-5; RXF 393; SK-OV-3; SN12C; SNB-75; U-251; UACC-257; SNB-19; TK-10.
What all share (assay): inhibition of tumour cell growth, NCI panel, 48 h

`CSc1nc2c3ccccc3ccn2c1C(=O)N/N=C/c1ccccc1`: the GI50 was > 100 µM (inactive) with CCRF-CEM; > 100 µM (inactive) with HCC 2998; 1.65 µM (inactive) with HOP-92; 30.8 µM (inactive) in the experiment on Hs-578T; > 100 µM (inactive) in the experiment with MOLT-4; 36 µM (inactive) with NCI-H226. In addition, the GI50 in the experiment on NCI-H23 was 30.2 µM (inactive); in the experiment on NCI-H522, > 94.4 µM (inactive); in the experiment on OVCAR-4, 14.1 µM (inactive); in the experiment on OVCAR-5, > 75.5 µM (inactive); with RXF 393, 32 µM (inactive); with SK-OV-3 it was 19.6 µM (inactive). Moreover, the GI50 in the experiment with SN12C is 28.1 µM (inactive); with SNB-75, > 42.7 µM (inactive); with U-251 it was 15.8 µM (inactive); in the experiment with UACC-257, > 100 µM (inactive).

As for `COc1ccc(/C=C/C(=O)Oc2ccc(/C=C3\CCCCC3=O)cc2)cc1`, the GI50 in the experiment with CCRF-CEM is 1.93 µM (inactive); in the experiment on HCC 2998 it was > 39.1 µM (inactive); in the experiment on HOP-92, > 66.1 µM (inactive); in the experiment with Hs-578T, > 80.5 µM (inactive); in the experiment with MOLT-4, 2.51 µM (inactive); with NCI-H226, 25.3 µM (inactive). Further, the GI50 in the experiment with NCI-H23 is 97.1 µM (inactive); in the experiment with NCI-H522, > 100 µM (inactive); in the experiment with OVCAR-4 it was 43.2 µM (inactive); in the experiment on OVCAR-5 it was > 100 µM (inactive); in the experiment on RXF 393, > 100 µM (inactive); in the experiment with SK-OV-3, > 100 µM (inactive). For the same compound, the GI50 was 50.9 µM (inactive) with SN12C; > 66.1 µM (inactive) in the experiment with SNB-19; > 88.3 µM (inactive) in the experiment with SNB-75; > 91.6 µM (inactive) in the experiment with TK-10; > 94.6 µM (inactive) in the experiment with U-251; > 67.8 µM (inactive) with UACC-257.

Turning to `CCCc1nc(Cl)nc(Cl)c1Cl`, the GI50 in the experiment with CCRF-CEM is < 0.0264 µM (active); in the experiment on HCC 2998, 1.08 µM (active); in the experiment on HOP-92, 0.0104 µM (active); in the experiment with Hs-578T, 0.475 µM (active); in the experiment on MOLT-4, 0.065 µM (active); with NCI-H226, 2.35 µM (inactive). Further, the GI50 in the experiment with NCI-H23 was 0.45 µM (active); in the experiment with NCI-H522 it was 0.374 µM (active); with OVCAR-4, 0.0871 µM (active); in the experiment on OVCAR-5, 0.817 µM (active); in the experiment on RXF 393, 0.256 µM (active); in the experiment on SK-OV-3, 3.01 µM (inactive). For the same compound, the GI50 in the experiment on SN12C was 0.726 µM (active); with SNB-19 it was 1.16 µM (inactive); in the experiment with SNB-75, 1.22 µM (inactive); with TK-10 it was 0.762 µM (active); in the experiment with U-251, 0.67 µM (active); with UACC-257, 0.615 µM (active).

Consider `N#Cc1c(O)c(/N=N/c2ccc(Cl)cc2)c(=O)n2c1[nH]c1ccccc12`, for which the GI50 in the experiment on CCRF-CEM was 31.2 µM (inactive); in the experiment on HCC 2998, 41.5 µM (inactive); with HOP-92 it was 26.1 µM (inactive); in the experiment with Hs-578T, 52.1 µM (inactive); in the experiment with MOLT-4 it was 29.6 µM (inactive); in the experiment on NCI-H226 it was 81.8 µM (inactive). In addition, the GI50 is 46 µM (inactive) in the experiment with NCI-H23; 33.3 µM (inactive) with NCI-H522; 67 µM (inactive) with OVCAR-4; 62.2 µM (inactive) in the experiment on OVCAR-5; 53.8 µM (inactive) in the experiment on RXF 393; 94 µM (inactive) in the experiment with SK-OV-3. The GI50 is 46.5 µM (inactive) in the experiment on SN12C; 47.3 µM (inactive) in the experiment with SNB-19; 37.7 µM (inactive) with SNB-75; 54 µM (inactive) with TK-10; 37.5 µM (inactive) with U-251; 52.1 µM (inactive) with UACC-257.

For the compound `CC(C)OP(=O)(OC(C)C)c1c(N)n[nH]c1Nc1ccccc1`, the GI50 in the experiment on CCRF-CEM was > 100 µM (inactive); with HCC 2998, > 100 µM (inactive); with HOP-92, > 100 µM (inactive); in the experiment with Hs-578T it was 33 µM (inactive); with MOLT-4 it was > 100 µM (inactive); in the experiment with NCI-H226, > 100 µM (inactive). Also, the GI50 in the experiment on NCI-H23, in the experiment with NCI-H522, in the experiment with OVCAR-4, in the experiment with OVCAR-5, in the experiment on RXF 393 and in the experiment with SK-OV-3 was > 100 µM (inactive) throughout. Further, the GI50 in the experiment with SNB-19, with SNB-75, with TK-10, with U-251 and in the experiment on UACC-257 was > 100 µM (inactive) each time.

For `Cc1ccc(S(=O)(=O)N/N=C2/C3CC4CCC2C4C3)cc1` (stereo not given), the GI50 with HCC 2998, with HOP-92, with Hs-578T, with NCI-H226, in the experiment with NCI-H23 and in the experiment with NCI-H522 was > 100 µM (inactive) in each case. The GI50 with OVCAR-4, in the experiment on OVCAR-5, with RXF 393, in the experiment on SK-OV-3, with SN12C and in the experiment on SNB-75 was > 100 µM (inactive) throughout. The GI50 with TK-10, with U-251 and with UACC-257 was > 100 µM (inactive) each time.

As to `O=C(COc1cc(=O)oc2ccccc12)c1ccccc1`, the GI50 was 71.6 µM (inactive) with CCRF-CEM; > 100 µM (inactive) in the experiment with HCC 2998; 16.7 µM (inactive) in the experiment with HOP-92; 24.9 µM (inactive) with Hs-578T; > 100 µM (inactive) in the experiment with MOLT-4; 19.1 µM (inactive) in the experiment with NCI-H226. Moreover, the GI50 was 25.2 µM (inactive) in the experiment with NCI-H23; 32.4 µM (inactive) in the experiment with NCI-H522; 29.6 µM (inactive) in the experiment on OVCAR-4; > 100 µM (inactive) in the experiment on OVCAR-5; > 10 µM (inactive) in the experiment with RXF 393; > 100 µM (inactive) in the experiment on SN12C. The GI50 in the experiment on SNB-19 is 21.7 µM (inactive); in the experiment on SNB-75, 26.4 µM (inactive); in the experiment with TK-10, > 100 µM (inactive); in the experiment on U-251 it was 17.7 µM (inactive); in the experiment with UACC-257, > 100 µM (inactive).

For `C=[N+](CNC(=O)CNC(=O)C(Cc1ccccc1)NC(=O)OC(C)(C)C)C(=O)CNC(=O)C(Cc1ccccc1)NC(=O)OC(C)(C)C` (stereo not given), the GI50 in the experiment on CCRF-CEM, with HCC 2998, in the experiment with HOP-92, in the experiment with Hs-578T, with MOLT-4 and in the experiment with NCI-H226 was > 100 µM (inactive) in each case. In addition, the GI50 in the experiment with NCI-H23, with NCI-H522, with OVCAR-4, in the experiment on OVCAR-5, in the experiment on RXF 393 and in the experiment with SK-OV-3 was > 100 µM (inactive) in each case. The GI50 in the experiment on SN12C, in the experiment on SNB-19, in the experiment on SNB-75 and in the experiment with UACC-257 was > 100 µM (inactive) throughout.
